Laboratory results reported in patent US12545686B2, “Polymorphic forms of (s)-n-(3-bromo-2-fluorophenyl)-7-((4-methylpiperazin-1-yl)methyl)-7,8-dihydro-[1,4]dioxino[2,3-g]quinazolin-4-amine as EGFR inhibitors” (ERASCA, INC., priority 2021, dated 2026).

How the values were obtained:
[1] = Dynamic vapor sorption (DVS), with PXRD and TG-FTIR of the post-DVS sample; type: physicochemical; details: for Solid form of the sample recovered post-DVS (PXRD): PXRD after DVS; for Water content of the post-DVS sample by TG-FTIR: sample recovered at end of DVS test; for Total water content change during the DVS cycles: wet sample used
Description: Dynamic vapor sorption: DVS measurements were performed with an SPS11-100n “Sorptions Prifsystem” from ProUmid (formerly “Projekt Messtechnik”), August-Nagel-Str. 23, 89079 Ulm (Germany). About 5-20 mg of sample was put into an aluminum sample pan. Humidity change rates of 5% per hour were used. The applied measurement program is visualized in the figure (blue trace). The presentations showing the effective water content are corrected.
The sample was placed on an aluminum or platinum holder on top of a microbalance and allowed to equilibrate at 50% RH before starting the pre-defined humidity programs. The measurement program is visualized in the figures of the report.
Classification of Hygroscopicity: The hygroscopicity was classified based on the mass gain at 85% RH relative to the initial mass as follows: deliquescent (sufficient water adsorbed to form a liquid), very hygroscopic (mass increase of ≥15%), hygroscopic (mass increase <15% but ≥2%), slightly hygroscopic (mass increase <2% but ≥0.2%), or non-hygroscopic (mass increase <0.2%).

[2] = Physical form stability on drying (PXRD); type: physicochemical
Description: PowderX-ray diffraction: Powder X-ray diffraction was carried out with a Stoe Stadi P diffractometer equipped with a Mythen1K detector operating with Cu—Kα1 radiation. The measurements with this instrument were performed in transmission at a tube voltage of 40 kV and 40 mA tube power. A curved Ge monochromator allows testing with Cu—Kα1 radiation. The following parameters were set: 0.02° 20 step size, 12 s step time, 1.5-50.5° 20 scanning range, and 1° 20 detector step (detector mode in step scan). For a typical sample preparation about 10 mg of sample was placed between two acetate foils and mounted into a Stoe transmission sample holder. The sample was rotated during the measurement. All sample preparation and measurement was done in an ambient air atmosphere.
The first crystalline form of Compound (I) was designated as Form A and was obtained from a suspension equilibration experiment of the amorphous form in an isopropanol—water mixture. Form A was characterized by PXRD, TG-FTIR, H-NMR and DVS.
The PXRD pattern of Form A is depicted in FIG. 1. It should be noted that this sample was examined by PXRD before drying and that the undried sample is highly crystalline in nature. […] A TG-FTIR of the crystal Form A sample without much drying indicated a large mass loss of 36.6% that is attributable to water and isopropanol. Given the large mass loss it was concluded that drying was insufficient, and therefore the sample was further dried under vacuum at ambient temperature for about 23 hours and a new TG-FTIR was recorded.
As with Form A, Form B was examined by PXRD before drying was indicated to be highly crystalline in nature. […] A TG-FTIR was carried out for Form B without further drying and the thermogram indicated a large mass loss of 36.5% that is attributable to water; however no alcohol was detected. Given the large mass loss it was concluded that drying was insufficient, and the sample was subjected to further vacuum drying at ambient temperature for ten minutes and a new TG-FTIR was recorded. The new TG-FTIR thermogram indicated a water content of about 4.6%.

| SMILES | Solid form of the sample recovered post-DVS (PXRD) [1] | Water uptake above 50% r.h. in DVS [1] | Water content at the end of the DVS test ([1]; end of test) | Water content of the post-DVS sample by TG-FTIR [1] | Total water content change during the DVS cycles [1] | Physical form stability [2] | Solid form after further drying ([2]; further drying beyond ten minutes vacuum) | PXRD of the dried sample ([2]; vacuum drying at ambient temperature for ten minutes) | Water lost below 50% r.h. during the DVS cycles ([1]; below 50% r.h.) | Water content change over the whole range of relative humidity ([1]; from 0% to 95% r.h., roughly three waters per Compound (I)) [%] | PXRD of the dried sample ([2]; dried under vacuum at ambient temperature for about 23 hours) | Effect of drying on crystallinity ([2]; drying of highly crystalline, solvent-rich samples) |
| --- | --- | --- | --- | --- | --- | --- | --- | --- | --- | --- | --- | --- |
| CN1CCN(C[C@H]2COc3cc4ncnc(Nc5cccc(Br)c5F)c4cc3O2)CC1 [Form C, (S)—N-(3-bromo-2-fluorophenyl)-7-((4-methylpiperazin-1-yl)methyl)-7,8-dihydro-[1,4]dioxino[2,3-g]quinazolin-4-amine] | crystallinity was lost almost completely | just small amounts of water | about 5.9% | about 5.9% | about 14% | poor physical form stability |  |  |  |  |  |  |
| CN1CCN(C[C@H]2COc3cc4ncnc(Nc5cccc(Br)c5F)c4cc3O2)CC1 [Form B, (S)—N-(3-bromo-2-fluorophenyl)-7-((4-methylpiperazin-1-yl)methyl)-7,8-dihydro-[1,4]dioxino[2,3-g]quinazolin-4-amine] | crystallinity was lost | just small amounts of water |  | about 6.4% | about 13% | poor physical form stability | completely amorphous material | dramatic loss of crystallinity |  |  |  |  |
| CN1CCN(C[C@H]2COc3cc4ncnc(Nc5cccc(Br)c5F)c4cc3O2)CC1 [Form A, (S)—N-(3-bromo-2-fluorophenyl)-7-((4-methylpiperazin-1-yl)methyl)-7,8-dihydro-[1,4]dioxino[2,3-g]quinazolin-4-amine] | Form A was retained | just small amounts of water |  |  |  | poor physical form stability |  |  | about 8% | ~10 | essentially amorphous material | significant loss of crystallinity |
